Data as given in ChEMBL document CHEMBL3638788, “Benzoxazines, benzothiazines, and related compounds having NOS inhibitory activity” (2013).

Experiments:
[1] = target: Nitric oxide synthase, inducible (Homo sapiens, UniProt P35228); assay: Enzyme Assay: Recombinant human inducible NOS (iNOS) was produced in Baculovirus-infected Sf9 cells (ALEXIS). In a radiometric method, NO synthase activity was determined by measuring the conversion of [3H]L-arginine to [3H]L-citrulline. To measure iNOS, 10 uL of enzyme was added to 100 uL of 100 mM HEPES, pH=7.4, containing 1 mM CaCl2, 1 mM EDTA, 1 mM dithiothreitol, 1 uM FMN, 1 uM FAD, 10 uM tetrahydrobiopterin, 120 uM NADPH, and 100 nM CaM. To measure enzyme inhibition, a 15 uL solution of a test substance was added to the enzyme assay solution, followed by a pre-incubation time of 15 min at RT. The reaction was initiated by addition of 20 uL L-arginine containing 0.25 uCi of [3H] arginine/mL and 24 uM L-arginine. The total volume of the reaction mixture was 150 uL in every well.
Nitric oxide synthase 3 = target: T1, Nitric oxide synthase 3 (Homo sapiens, UniProt P29474); assay: (§1) Enzyme Assay: Primary stock solutions of test compounds at a concentration of 6 mM were prepared from the 2 to 5 mg powder. The primary stock solutions of each test compound were prepared freshly in distilled water on the day of study to obtain a final concentration of 6 mM. For determination of IC50 values, 12 test compound concent rations were prepared as 3-fold serial dilutions. Concentration range of test compound utilized for nNOS were 0.001 to 300 μM and for eNOS were 0.003 to 10 00 μM. The vehicle of the test compound or inhibitor was used as blank control. For non-specific activity, 100 μM L-NMMA was used. Runs using the IC50 concentration of L-NAME were done in parallel as controls. All incubations are performed in duplicate.
T1 sequence (P29474 whole entry): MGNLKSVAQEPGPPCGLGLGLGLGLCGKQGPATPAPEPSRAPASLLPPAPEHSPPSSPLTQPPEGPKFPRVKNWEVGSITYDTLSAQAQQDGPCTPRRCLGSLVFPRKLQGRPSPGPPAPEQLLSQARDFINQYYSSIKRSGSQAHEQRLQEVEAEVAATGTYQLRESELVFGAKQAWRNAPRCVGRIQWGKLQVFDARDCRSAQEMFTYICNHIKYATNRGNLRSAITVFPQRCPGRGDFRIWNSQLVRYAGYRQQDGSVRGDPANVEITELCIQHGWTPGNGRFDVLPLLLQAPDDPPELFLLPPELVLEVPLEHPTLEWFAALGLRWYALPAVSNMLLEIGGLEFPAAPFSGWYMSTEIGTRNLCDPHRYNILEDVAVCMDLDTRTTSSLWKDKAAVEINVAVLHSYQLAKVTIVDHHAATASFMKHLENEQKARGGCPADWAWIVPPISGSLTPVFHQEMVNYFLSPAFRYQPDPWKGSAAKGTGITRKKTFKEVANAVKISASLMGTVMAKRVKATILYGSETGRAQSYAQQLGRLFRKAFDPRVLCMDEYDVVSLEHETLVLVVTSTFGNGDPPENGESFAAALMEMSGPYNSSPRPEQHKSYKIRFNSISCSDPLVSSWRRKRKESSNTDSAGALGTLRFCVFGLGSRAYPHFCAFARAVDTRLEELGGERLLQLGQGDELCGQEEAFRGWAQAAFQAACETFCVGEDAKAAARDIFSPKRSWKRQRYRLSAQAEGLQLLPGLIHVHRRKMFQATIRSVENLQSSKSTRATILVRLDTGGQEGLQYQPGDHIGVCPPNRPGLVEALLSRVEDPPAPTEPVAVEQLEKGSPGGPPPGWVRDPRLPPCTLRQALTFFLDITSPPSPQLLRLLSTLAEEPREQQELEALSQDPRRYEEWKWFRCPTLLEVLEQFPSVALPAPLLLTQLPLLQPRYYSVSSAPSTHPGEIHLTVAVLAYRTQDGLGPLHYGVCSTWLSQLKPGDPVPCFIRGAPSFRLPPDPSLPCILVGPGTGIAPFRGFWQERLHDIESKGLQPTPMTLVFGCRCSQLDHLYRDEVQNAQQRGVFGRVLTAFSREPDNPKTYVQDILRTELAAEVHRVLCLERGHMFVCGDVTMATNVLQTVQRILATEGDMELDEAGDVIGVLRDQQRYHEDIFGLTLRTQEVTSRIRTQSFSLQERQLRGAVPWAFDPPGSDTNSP

Nitric oxide synthase 1 = Nitric oxide synthase 1 (Homo sapiens, UniProt P29475); assay: as §1
Nitric oxide synthase 1, sequence (P29475 whole entry): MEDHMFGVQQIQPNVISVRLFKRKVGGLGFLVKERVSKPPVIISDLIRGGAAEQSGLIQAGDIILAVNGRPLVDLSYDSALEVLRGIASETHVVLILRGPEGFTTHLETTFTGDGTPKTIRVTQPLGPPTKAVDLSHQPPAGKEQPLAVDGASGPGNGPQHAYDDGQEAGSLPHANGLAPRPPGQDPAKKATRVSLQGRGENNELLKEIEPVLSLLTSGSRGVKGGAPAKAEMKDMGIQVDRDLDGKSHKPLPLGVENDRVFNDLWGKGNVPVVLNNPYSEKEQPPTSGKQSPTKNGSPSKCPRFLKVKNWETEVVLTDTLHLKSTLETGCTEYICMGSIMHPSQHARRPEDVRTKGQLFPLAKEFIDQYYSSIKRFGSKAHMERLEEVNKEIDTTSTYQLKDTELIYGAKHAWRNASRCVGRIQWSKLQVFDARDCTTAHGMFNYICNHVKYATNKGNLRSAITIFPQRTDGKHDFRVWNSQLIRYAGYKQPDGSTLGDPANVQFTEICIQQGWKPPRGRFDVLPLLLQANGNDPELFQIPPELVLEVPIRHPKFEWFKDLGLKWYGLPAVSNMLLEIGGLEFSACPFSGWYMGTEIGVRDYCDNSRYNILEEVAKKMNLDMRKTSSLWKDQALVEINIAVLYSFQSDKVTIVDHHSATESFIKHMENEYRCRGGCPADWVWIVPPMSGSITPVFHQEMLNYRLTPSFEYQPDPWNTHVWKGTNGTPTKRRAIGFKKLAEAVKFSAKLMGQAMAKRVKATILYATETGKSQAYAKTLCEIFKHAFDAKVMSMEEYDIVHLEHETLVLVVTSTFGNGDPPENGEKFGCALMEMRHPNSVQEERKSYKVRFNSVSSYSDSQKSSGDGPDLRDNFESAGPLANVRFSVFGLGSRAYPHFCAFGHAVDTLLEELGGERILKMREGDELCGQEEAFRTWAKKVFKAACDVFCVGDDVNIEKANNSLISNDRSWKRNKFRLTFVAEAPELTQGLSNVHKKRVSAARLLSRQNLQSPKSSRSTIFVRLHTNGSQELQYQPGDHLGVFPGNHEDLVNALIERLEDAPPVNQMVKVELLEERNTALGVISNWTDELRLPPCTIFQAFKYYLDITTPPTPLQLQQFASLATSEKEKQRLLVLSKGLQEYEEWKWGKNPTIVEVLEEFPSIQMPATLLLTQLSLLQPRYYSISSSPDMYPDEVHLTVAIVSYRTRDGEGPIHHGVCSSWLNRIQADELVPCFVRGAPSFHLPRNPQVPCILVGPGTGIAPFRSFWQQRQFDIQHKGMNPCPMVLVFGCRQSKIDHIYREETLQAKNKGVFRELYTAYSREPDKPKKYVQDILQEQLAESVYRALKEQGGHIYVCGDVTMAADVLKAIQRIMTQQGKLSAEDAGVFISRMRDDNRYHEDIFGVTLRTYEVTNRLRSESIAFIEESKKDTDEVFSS

Nitric oxide synthase, inducible, sequence (P35228 whole entry): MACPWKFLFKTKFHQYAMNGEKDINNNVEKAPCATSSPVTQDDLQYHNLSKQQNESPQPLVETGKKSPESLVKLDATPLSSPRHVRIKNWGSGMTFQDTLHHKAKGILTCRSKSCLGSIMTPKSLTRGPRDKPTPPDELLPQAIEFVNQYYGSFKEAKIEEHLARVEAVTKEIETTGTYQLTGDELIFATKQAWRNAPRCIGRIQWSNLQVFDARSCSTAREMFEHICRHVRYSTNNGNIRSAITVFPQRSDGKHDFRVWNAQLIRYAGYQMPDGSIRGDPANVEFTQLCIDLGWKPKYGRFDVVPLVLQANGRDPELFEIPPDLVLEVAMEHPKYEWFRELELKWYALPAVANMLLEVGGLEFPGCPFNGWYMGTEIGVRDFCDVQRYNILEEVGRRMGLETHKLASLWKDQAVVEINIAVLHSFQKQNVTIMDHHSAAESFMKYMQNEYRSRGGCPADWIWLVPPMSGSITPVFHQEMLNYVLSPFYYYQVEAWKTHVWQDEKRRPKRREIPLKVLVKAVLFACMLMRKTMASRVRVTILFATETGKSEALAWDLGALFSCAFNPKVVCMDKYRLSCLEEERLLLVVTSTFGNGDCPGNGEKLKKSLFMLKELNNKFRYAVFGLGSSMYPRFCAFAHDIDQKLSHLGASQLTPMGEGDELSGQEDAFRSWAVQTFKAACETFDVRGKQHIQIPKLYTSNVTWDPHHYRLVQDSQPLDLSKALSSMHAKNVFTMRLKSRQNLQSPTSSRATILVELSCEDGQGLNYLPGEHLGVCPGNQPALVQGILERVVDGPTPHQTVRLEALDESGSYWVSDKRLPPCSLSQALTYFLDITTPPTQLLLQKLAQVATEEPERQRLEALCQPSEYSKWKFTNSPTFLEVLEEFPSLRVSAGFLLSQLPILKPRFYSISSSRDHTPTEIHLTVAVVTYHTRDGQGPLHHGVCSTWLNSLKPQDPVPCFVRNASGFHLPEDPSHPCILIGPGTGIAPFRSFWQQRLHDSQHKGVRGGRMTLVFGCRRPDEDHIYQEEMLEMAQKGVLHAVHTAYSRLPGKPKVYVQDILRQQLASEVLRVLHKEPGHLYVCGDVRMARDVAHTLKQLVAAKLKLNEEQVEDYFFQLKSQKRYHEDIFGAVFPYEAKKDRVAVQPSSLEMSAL

Row | IC50 [1] | IC50 (Nitric oxide synthase 3) | IC50 (Nitric oxide synthase 1) | Compound
1 | > 100 µM | 87.2 µM | 2.08 µM | CN1CCCC1CCN1C(=O)COc2cc(NC(=N)c3cccs3)ccc21 (stereo not given)
2 | 10.6 µM |  | 0.43 µM | CN1CCCC1CCN1CCOc2cc(/N=C(\N)c3cccs3)ccc21 (stereo not given)
